Test results reported in patent US8067460B2 (The Regents of the University of Califonia, priority 2004, dated 2011).
Where two headings read alike, the source gives them in different places. No end group written: not given here.

What was measured:
[1] = biological target: Kv1.5 (Homo sapiens, UniProt P22460); assay: Inhibitory effect on K+ channels (Appendix A): Kv1.5; type: cell-based; settings: for nH (Kv1.5): Hill coefficient printed beside the Kv1.5 EC50
[2] = biological target: Kv1.3 (Mus musculus, UniProt P16390); assay: Inhibitory effect on K+ channels (Appendix A): Kv1.3; type: cell-based; settings: for nH (Kv1.3): Hill coefficient printed beside the Kv1.3 EC50; for selectivity for Kv1.3 channels over Kv1.5 channels: Kv1.3 versus Kv1.5, from Appendix A
[3] = tested on: class-switched (IgD−CD27+) memory B cells; settings: cited from earlier work
[4] = biological target: Kv1.4 (Homo sapiens, UniProt P22459); assay: Inhibitory effect on K+ channels (Appendix A): Kv1.4; type: cell-based
[5] = biological target: Kv1.1 (Homo sapiens, UniProt Q09470); assay: Inhibitory effect on K+ channels (Appendix A): Kv1.1; type: cell-based
[6] = tested on: delayed-type hypersensitivity (DTH) response; settings: mini-pigs, cited from earlier work
[7] = biological target: BK (Homo sapiens, UniProt Q12791); assay: Inhibitory effect on K+ channels (Appendix A): BK; type: cell-based
[8] = biological target: Kv1.7 (Homo sapiens, UniProt Q96RP8); assay: Inhibitory effect on K+ channels (Appendix A): Kv1.7; type: cell-based
[9] = biological target: IKCa1 (Homo sapiens, UniProt O15554); assay: Inhibitory effect on K+ channels (Appendix A): IKCa1; type: cell-based

Chain of Kv1.3 (P16390 whole entry): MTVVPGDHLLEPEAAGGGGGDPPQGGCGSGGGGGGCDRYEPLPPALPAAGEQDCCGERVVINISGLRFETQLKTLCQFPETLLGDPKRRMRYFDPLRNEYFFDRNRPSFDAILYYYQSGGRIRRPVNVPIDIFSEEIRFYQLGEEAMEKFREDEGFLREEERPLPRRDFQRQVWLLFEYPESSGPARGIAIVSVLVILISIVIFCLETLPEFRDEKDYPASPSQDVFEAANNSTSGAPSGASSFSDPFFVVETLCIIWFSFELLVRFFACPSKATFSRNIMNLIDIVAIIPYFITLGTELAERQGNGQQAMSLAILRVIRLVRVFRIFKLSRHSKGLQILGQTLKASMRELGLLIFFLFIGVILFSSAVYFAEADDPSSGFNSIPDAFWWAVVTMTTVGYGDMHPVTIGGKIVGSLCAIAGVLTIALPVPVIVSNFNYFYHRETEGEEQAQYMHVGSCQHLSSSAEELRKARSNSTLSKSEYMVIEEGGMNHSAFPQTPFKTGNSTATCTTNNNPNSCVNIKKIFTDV
Chain of Kv1.1 (Q09470 whole entry): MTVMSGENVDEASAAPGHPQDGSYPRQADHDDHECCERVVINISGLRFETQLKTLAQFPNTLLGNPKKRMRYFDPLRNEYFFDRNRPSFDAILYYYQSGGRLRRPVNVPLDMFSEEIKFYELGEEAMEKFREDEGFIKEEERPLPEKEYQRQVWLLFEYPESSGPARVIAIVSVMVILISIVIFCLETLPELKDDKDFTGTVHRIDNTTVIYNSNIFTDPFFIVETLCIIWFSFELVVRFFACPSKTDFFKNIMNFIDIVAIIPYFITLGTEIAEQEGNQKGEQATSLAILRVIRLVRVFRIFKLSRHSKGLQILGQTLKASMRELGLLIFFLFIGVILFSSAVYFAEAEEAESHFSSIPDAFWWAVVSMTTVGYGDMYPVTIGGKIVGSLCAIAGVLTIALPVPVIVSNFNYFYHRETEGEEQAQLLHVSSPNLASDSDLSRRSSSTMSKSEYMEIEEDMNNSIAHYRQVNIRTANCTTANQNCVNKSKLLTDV
Chain of Kv1.5 (P22460 whole entry): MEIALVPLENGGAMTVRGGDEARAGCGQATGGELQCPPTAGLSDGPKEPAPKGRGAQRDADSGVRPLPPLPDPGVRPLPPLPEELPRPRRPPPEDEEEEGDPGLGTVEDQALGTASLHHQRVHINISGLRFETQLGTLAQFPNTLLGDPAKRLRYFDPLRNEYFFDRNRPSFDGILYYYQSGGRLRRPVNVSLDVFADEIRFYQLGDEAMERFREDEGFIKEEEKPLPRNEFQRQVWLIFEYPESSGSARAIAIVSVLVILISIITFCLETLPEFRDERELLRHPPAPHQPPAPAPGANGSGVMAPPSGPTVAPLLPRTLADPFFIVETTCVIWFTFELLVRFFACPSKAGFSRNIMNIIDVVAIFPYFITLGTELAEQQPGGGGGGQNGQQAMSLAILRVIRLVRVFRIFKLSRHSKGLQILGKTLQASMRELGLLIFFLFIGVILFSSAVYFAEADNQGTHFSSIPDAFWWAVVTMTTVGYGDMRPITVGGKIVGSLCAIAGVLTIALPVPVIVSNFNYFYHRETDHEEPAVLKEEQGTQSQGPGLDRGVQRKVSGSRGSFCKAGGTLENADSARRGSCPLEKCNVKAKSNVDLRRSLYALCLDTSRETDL
Chain of Kv1.4 (P22459 whole entry): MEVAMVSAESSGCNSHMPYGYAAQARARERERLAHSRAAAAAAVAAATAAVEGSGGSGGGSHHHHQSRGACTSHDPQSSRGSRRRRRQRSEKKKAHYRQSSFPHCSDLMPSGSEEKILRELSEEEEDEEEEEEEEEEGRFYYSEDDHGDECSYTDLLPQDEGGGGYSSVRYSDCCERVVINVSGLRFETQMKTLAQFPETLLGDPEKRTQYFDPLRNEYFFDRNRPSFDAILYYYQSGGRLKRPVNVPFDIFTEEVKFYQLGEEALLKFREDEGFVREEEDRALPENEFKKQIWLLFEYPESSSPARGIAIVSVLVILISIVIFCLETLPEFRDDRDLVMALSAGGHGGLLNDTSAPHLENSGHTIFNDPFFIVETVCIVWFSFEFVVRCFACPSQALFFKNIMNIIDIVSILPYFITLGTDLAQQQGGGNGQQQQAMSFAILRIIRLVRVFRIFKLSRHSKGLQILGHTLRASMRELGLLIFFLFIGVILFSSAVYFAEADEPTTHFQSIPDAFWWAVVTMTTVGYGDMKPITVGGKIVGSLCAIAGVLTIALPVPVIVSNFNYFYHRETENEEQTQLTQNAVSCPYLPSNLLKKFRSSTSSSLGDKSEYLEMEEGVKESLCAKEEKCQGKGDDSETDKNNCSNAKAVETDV
Chain of BK (Q12791 whole entry): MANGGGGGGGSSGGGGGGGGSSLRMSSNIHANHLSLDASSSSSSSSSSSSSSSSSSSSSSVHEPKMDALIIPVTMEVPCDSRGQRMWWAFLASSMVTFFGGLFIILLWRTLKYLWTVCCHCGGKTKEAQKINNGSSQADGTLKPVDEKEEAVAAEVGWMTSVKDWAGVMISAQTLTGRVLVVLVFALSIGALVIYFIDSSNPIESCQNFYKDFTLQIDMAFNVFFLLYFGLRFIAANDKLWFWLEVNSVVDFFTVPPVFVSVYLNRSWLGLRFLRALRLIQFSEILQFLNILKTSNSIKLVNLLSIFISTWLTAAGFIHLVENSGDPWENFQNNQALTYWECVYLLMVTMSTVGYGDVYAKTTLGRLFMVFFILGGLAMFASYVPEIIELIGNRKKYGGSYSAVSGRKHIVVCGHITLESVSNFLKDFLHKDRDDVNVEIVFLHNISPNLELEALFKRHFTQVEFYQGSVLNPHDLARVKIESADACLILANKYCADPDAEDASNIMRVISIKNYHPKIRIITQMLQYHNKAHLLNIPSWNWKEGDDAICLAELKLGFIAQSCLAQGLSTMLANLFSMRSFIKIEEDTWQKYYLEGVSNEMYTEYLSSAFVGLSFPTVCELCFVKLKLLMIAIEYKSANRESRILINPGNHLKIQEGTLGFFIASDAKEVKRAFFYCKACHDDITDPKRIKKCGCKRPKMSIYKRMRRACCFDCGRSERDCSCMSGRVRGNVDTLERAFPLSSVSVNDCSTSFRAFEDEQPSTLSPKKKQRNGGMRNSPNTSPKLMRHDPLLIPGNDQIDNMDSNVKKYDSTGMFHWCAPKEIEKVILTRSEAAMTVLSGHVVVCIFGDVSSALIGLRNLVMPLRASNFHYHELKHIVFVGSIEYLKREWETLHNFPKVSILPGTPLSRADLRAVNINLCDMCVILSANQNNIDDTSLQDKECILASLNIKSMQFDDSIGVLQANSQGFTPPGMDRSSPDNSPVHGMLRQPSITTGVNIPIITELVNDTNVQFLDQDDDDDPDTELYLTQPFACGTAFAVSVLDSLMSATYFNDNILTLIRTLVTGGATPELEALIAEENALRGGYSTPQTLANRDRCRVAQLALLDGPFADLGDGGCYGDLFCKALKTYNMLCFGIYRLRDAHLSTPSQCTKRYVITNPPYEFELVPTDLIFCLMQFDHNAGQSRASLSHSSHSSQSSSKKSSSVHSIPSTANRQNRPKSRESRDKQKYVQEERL
Chain of Kv1.7 (Q96RP8 whole entry): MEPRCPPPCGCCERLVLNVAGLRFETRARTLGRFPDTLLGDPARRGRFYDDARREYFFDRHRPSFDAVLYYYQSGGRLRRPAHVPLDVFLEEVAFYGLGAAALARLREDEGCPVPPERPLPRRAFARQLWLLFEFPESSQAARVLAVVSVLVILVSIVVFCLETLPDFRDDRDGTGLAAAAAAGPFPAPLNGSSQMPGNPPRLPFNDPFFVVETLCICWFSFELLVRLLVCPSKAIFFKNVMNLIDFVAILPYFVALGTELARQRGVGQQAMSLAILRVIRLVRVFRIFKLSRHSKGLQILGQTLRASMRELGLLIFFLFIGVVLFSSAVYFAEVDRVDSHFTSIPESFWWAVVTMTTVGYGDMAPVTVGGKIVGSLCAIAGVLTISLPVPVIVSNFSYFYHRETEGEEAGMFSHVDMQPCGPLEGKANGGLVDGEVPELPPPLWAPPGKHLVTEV

Molecule	EC50 [1] [µM]	nH (Kv1.3) [2]	also measured
O=c1ccc2c(OCCCCOCc3ccccc3)c3ccoc3cc2o1	0.75 ± 0.04	–	–
O=c1ccc2c(OCCCCOc3ccc(Cl)cc3)c3ccoc3cc2o1 [AS84, 4-(4-[4-Chlorphenoxy]butoxy)-7H-furo[3,2-g][1]benzopyran-7-on]	0.01	2.0	–
N#CCCCOc1c2occc2cc2ccc(=O)oc12	–	–	EC50 ([1]; cells printed in μM): 10 µM
COc1cc(OC)cc(OCCCOc2c3ccoc3cc3oc(=O)ccc23)c1 [AS104, 4-[3-(3,5-Dimethoxyphenoxy)propoxy]-7H-furo[3,2-g][1]benzopyran-7-on]	–	2.2	–
O=c1ccc2c(OCCCOCc3ccccc3)c3ccoc3cc2o1	0.17 ± 0.02	–	–
COc1cc([N+](=O)[O-])ccc1OCCCCOc1c2ccoc2cc2oc(=O)ccc12	0.476 ± 0.02	–	–
O=c1ccc2ccc(OCCCCOc3c4ccoc4cc4oc(=O)ccc34)cc2o1	–	–	EC50 ([1]; cells printed in μM): 5 µM
N#CCCCCOc1c2ccoc2cc2oc(=O)ccc12	–	–	EC50 ([1]; cells printed in μM): 5 µM
COc1ccc(OCCCCOc2c3ccoc3cc3oc(=O)ccc23)cc1 [AS67, 4-(4-[4-Methoxyphenoxy]butoxy)-7H-furo[3,2-g][1]benzopyran-7-on]	0.01 ± 0.001	2.1	–
O=c1ccc2c(OCCCCNc3ccncc3)c3ccoc3cc2o1	–	–	EC50 ([1]; cells printed in μM): 5 µM
Cc1ccc(OCCCCOc2c3ccoc3cc3oc(=O)ccc23)c([N+](=O)[O-])c1	0.248 ± 0.02	–	–
O=c1ccc2c(OCCCCOc3ccc(F)cc3)c3ccoc3cc2o1	0.012 ± 0.001	2.3	–
O=c1ccc2c(OCCCCOc3ccc(Oc4ccccc4)cc3)c3ccoc3cc2o1 [AS85, 4-(4-[4-Phenoxyphenoxy]butoxy)-7H-furo[3,2-g][1]benzopyran-7-on]	0.75	–	selectivity for Kv1.3 channels over Kv1.5 channels [2]: selective for Kv1.3 channels over Kv1.5 channels
O=c1ccc2c(OCCCCOc3ccc4ccccc4c3)c3ccoc3cc2o1 [AS118]	0.08 ± 0.01	2.1	nH (Kv1.5) [1]: 2.0
4-[3-(3-Methoxyphenoxy)propoxy]-7H-furo[3,2-g][1]benzopyran-7-on [AS64]	–	2.05	EC50 [2]: 42 ± 3 nM
N#CCCCCOc1c2occc2cc2ccc(=O)oc12	–	–	EC50 ([1]; cells printed in μM): 10 µM
COc1ccc2sc(SCCCCOc3c4ccoc4cc4oc(=O)ccc34)nc2c1	0.1	–	–
COc1cc(OC)cc(OCCCCOc2c3ccoc3cc3oc(=O)ccc23)c1 [AS69, 4-(4-[3,5-Dimethoxyphenoxy]butoxy)-7H-furo[3,2-g][1]benzopyran-7-on]	0.15 ± 0.02	–	–
O=c1ccc2c(OCCCCc3ccccc3)c3ccoc3cc2o1 [Psora-4]	–	–	inhibition of proliferation [3]: potently inhibited
O=c1ccc2c(OCCCOc3ccccc3)c3ccoc3cc2o1 [PAP 3, 4-(3-Phenoxypropoxy)-7H-furo[3,2-g][1]benzopyran-7-on]	0.1 ± 0.008	–	EC50 [4]: ~500 nM; EC50 [5]: 80 ± 10 nM

Molecule	EC50 [1] [µM]	nH (Kv1.3) [2]	also measured
O=c1ccc2c(OCCCCOc3cccc4ccccc34)c3ccoc3cc2o1 [AS111]	0.05 ± 0.005	2.0	nH (Kv1.5) [1]: 2.0
O=c1ccc2c(OCCCCCOc3ccccc3)c3ccoc3cc2o1	–	2.1	–
O=c1ccc2c(OCCCCOc3cccc(C(F)(F)F)c3)c3ccoc3cc2o1	0.25	2.0	–
O=c1ccc2c(OCCCCSc3ncccn3)c3ccoc3cc2o1	0.159 ± 0.007	–	–
4-[3-(1-Naphthyloxy)propoxy]-7H-furo[3,2-g][1]benzopyran-7-on [AS135]	–	2.1	EC50 [2]: 18 ± 1 nM
Cc1ccc(OCCCCOc2c3ccoc3cc3oc(=O)ccc23)cc1 [AS96, 4-(4-[4-Methylphenoxy]butoxy)-7H-furo[3,2-g][1]benzopyran-7-on]	0.02	2.1	–
O=c1ccc2c(OCCOCc3ccccc3)c3ccoc3cc2o1	0.11 ± 0.02	–	EC50 [5]: 175 ± 20 nM
CCc1ccc(OCCCCCOc2c3ccoc3cc3oc(=O)ccc23)cc1	–	2.1	–
4-[3-(4-Ethylphenoxy)propoxy]-7H-furo[3,2-g][1]benzopyran-7-on [AS123]	–	1.7	EC50 [2]: 30 ± 2 nM; nH (Kv1.5) [1]: 2.0; EC50 ([1]; cells unit inferred): 0.068 ± 0.003 µM
COc1cccc(OCCCCOc2c3ccoc3cc3oc(=O)ccc23)c1 [AS68, 4-(4-[3-Methoxyphenoxy]butoxy)-7H-furo[3,2-g][1]benzopyran-7-on]	0.045 ± 0.005	–	–
C=C1C[C@@]2(O)[C@@H]3CC[C@@]4(C)[C@@H]5C=CC(=O)OC[C@]5(C(C)OC(C)=O)[C@@H](OC(C)=O)[C@@H](OC(C)=O)[C@@H]4[C@@]3(C)[C@H](OC(C)=O)[C@H](OC(C)=O)[C@@]2(C)C2(C(=O)OC)O[C@H]12 (some centres unmarked) [correolide]	–	–	suppression of the primary DTH response [6]: effectively suppress; suppression of the secondary DTH response [6]: much less effective
O=c1ccc2c(OCCCOc3ccc(Cl)cc3)c3ccoc3cc2o1 [AS132, 4-[3-(4-Chlorphenoxy)propoxy]-7H-furo[3,2-g][1]benzopyran-7-on]	–	–	nH (Kv1.3) ([2]; listed as drawing 81): 2.0; nH (Kv1.5) [1]: 2.0; EC50 ([1]; cells unit inferred): 0.025 ± 0.002 µM
O=c1ccc2c(OCCCCOc3ccc([N+](=O)[O-])cc3)c3ccoc3cc2o1 [AS78, 4-(4-[4-Nitrophenoxy]butoxy)-7H-furo[3,2-g][1]benzopyran-7-on]	0.105 ± 0.008	1.9	selectivity for Kv1.3 channels over Kv1.5 channels [2]: selective for Kv1.3 channels over Kv1.5 channels
MgTX: Kv1.3 blocker MgTX (TIINVKCTSPKQCLPPCKAQFGQSAGAKCMNGKCKCYPH; ends and bridges not checked; cysteine pairing not given here; UniProt P40755 1-39, looked up)	–	–	suppression of the primary DTH response [6]: effectively suppress; suppression of the secondary DTH response [6]: much less effective
O=c1ccc2c(OCCCCOCc3ccc(F)cc3)c3ccoc3cc2o1	–	2	–
4-[3-(4-Methylphenoxy)propoxy]-7H-furo[3,2-g][1]benzopyran-7-on [AS127]	–	1.9	EC50 [2]: 25 ± 2 nM; nH (Kv1.5) [1]: 1.8; EC50 ([1]; cells unit inferred): 0.25 ± 0.01 µM
O=c1ccc2c(OCCCCn3cccn3)c3ccoc3cc2o1	–	–	EC50 ([1]; cells printed in μM): 5 µM
Cc1nnc(SCCCCOc2c3ccoc3cc3oc(=O)ccc23)s1	–	–	EC50 ([1]; cells printed in μM): 1 µM
N#CCCCOc1c2ccoc2cc2oc(=O)ccc12	–	–	EC50 ([1]; cells printed in μM): 12 µM
O=c1ccc2c(OCCCCOc3ccccc3)c3ccoc3cc2o1 [PAP 1, 4-(4-Phenoxybutoxy)-7H-furo[3,2-g][1]benzopyran-7-on]	0.045 ± 0.003	1.8	EC50 [7]: 1500 ± 700 nM; EC50 [4]: 75 ± 5 nM; EC50 [8]: 98 ± 5 nM; EC50 [9]: 10000 ± 1000 nM; nH (Kv1.5) [1]: 2.3; EC50 [5]: 65 ± 8 nM
